Numbers after ± are expanded uncertainties.
Legend:
[1] = 101 kPa, Liquid; for viscosity: Capillary tube (Ostwald / Ubbelohde) method; for speed of sound: Pulse-echo method
[2] = xn = mol fraction of the nth substance listed; conditions: 101 kPa, Liquid; for viscosity: Capillary tube (Ostwald / Ubbelohde) method; for speed of sound: Pulse-echo method

Compound | mass density ([1]; 303.15 K) | viscosity ([1]; 303.15 K) | speed of sound ([1]; 303.15 K) | mass density ([1]; 308.15 K) | viscosity ([1]; 308.15 K) | speed of sound ([1]; 308.15 K) | mass density ([1]; 313.15 K) | viscosity ([1]; 313.15 K) | speed of sound ([1]; 313.15 K) | also measured
N#CCc1ccccc1 [benzeneacetonitrile] | 1008.8 ± 0.7 kg/m3 | 1.761 ± 0.016 mPa·s | 1519.2 ± 9.2 m/s | 1004.1 ± 0.7 kg/m3 | 1.602 ± 0.015 mPa·s | 1512.9 ± 9.2 m/s | 999.5 ± 0.8 kg/m3 | 1.489 ± 0.015 mPa·s | 1503.4 ± 9.1 m/s | –
N#CCc1ccccc1 [benzeneacetonitrile] + CCOC(=O)CC#N | – | – | – | – | – | – | – | – | – | viscosity ([2]; 303.15 K, x1 = 1): 1.761 ± 0.016 mPa·s; speed of sound ([2]; 303.15 K, x1 = 1): 1519.2 ± 9.2 m/s; mass density ([2]; 303.15 K, x1 = 1): 1008.8 ± 0.7 kg/m3; viscosity ([2]; 308.15 K, x1 = 1): 1.602 ± 0.015 mPa·s; speed of sound ([2]; 308.15 K, x1 = 1): 1512.9 ± 9.2 m/s; mass density ([2]; 308.15 K, x1 = 1): 1004.1 ± 0.7 kg/m3; viscosity ([2]; 313.15 K, x1 = 1): 1.489 ± 0.015 mPa·s; speed of sound ([2]; 313.15 K, x1 = 1): 1503.4 ± 9.1 m/s; mass density ([2]; 313.15 K, x1 = 1): 999.5 ± 0.8 kg/m3
N#CCc1ccccc1 [benzeneacetonitrile] + CCOC(=O)CCl | – | – | – | – | – | – | – | – | – | viscosity ([2]; 303.15 K, x1 = 1): 1.761 ± 0.016 mPa·s; speed of sound ([2]; 303.15 K, x1 = 1): 1519.2 ± 9.2 m/s; mass density ([2]; 303.15 K, x1 = 1): 1008.8 ± 0.7 kg/m3; viscosity ([2]; 308.15 K, x1 = 1): 1.602 ± 0.015 mPa·s; speed of sound ([2]; 308.15 K, x1 = 1): 1512.9 ± 9.2 m/s; mass density ([2]; 308.15 K, x1 = 1): 1004.1 ± 0.7 kg/m3; viscosity ([2]; 313.15 K, x1 = 1): 1.489 ± 0.015 mPa·s; speed of sound ([2]; 313.15 K, x1 = 1): 1503.4 ± 9.1 m/s; mass density ([2]; 313.15 K, x1 = 1): 999.5 ± 0.8 kg/m3
CCOC(C)=O [ethyl acetate] | 888.9 ± 0.5 kg/m3 | 0.379 ± 0.01 mPa·s | 1118.5 ± 6.8 m/s | 882.6 ± 0.5 kg/m3 | 0.361 ± 0.01 mPa·s | 1097.8 ± 6.6 m/s | 875.9 ± 0.5 kg/m3 | 0.344 ± 0.01 mPa·s | 1081.2 ± 6.5 m/s | –
CCOC(C)=O [ethyl acetate] + N#CCc1ccccc1 | – | – | – | – | – | – | – | – | – | viscosity ([2]; 303.15 K, x2 = 0): 0.379 ± 0.01 mPa·s; speed of sound ([2]; 303.15 K, x2 = 0): 1118.5 ± 6.8 m/s; mass density ([2]; 303.15 K, x2 = 0): 888.9 ± 0.5 kg/m3; viscosity ([2]; 308.15 K, x2 = 0): 0.361 ± 0.01 mPa·s; speed of sound ([2]; 308.15 K, x2 = 0): 1097.8 ± 6.6 m/s; mass density ([2]; 308.15 K, x2 = 0): 882.6 ± 0.5 kg/m3; viscosity ([2]; 313.15 K, x2 = 0): 0.344 ± 0.01 mPa·s; speed of sound ([2]; 313.15 K, x2 = 0): 1081.2 ± 6.5 m/s; mass density ([2]; 313.15 K, x2 = 0): 875.9 ± 0.5 kg/m3
CCOC(=O)CCl [ethyl chloroethanoate] | 1139.3 ± 0.9 kg/m3 | 0.9692 ± 0.012 mPa·s | 1229.4 ± 7.5 m/s | 1132.5 ± 0.9 kg/m3 | 0.8979 ± 0.012 mPa·s | 1212.4 ± 7.4 m/s | 1125.9 ± 0.9 kg/m3 | 0.8341 ± 0.012 mPa·s | 1197.6 ± 7.3 m/s | –
CCOC(=O)CC#N [ethyl cyanoacetate] | 1051.4 ± 1.4 kg/m3 | 2.186 ± 0.027 mPa·s | 1396.9 ± 8.6 m/s | 1046.5 ± 1.4 kg/m3 | 1.962 ± 0.024 mPa·s | 1384.8 ± 8.6 m/s | 1040.8 ± 1.5 kg/m3 | 1.77 ± 0.022 mPa·s | 1367.7 ± 8.5 m/s | –

From the NIST ThermoML archive (doi:10.1021/je900525f)
